pEC50: −log10 of the molar value.
Biological target: T1, Piezo1 (Rattus norvegicus, UniProt Q0KL00)
T1 construct: native channel in INS-1 832/13 and BRIN-BD11 rat β-cell lines
Assay: fura-2 Ca2+ influx and whole-cell patch-clamp in INS-1 cells; Piezo1 siRNA reduced Yoda1-induced insulin release
Format: cell-based

T1 sequence (Q0KL00 whole entry): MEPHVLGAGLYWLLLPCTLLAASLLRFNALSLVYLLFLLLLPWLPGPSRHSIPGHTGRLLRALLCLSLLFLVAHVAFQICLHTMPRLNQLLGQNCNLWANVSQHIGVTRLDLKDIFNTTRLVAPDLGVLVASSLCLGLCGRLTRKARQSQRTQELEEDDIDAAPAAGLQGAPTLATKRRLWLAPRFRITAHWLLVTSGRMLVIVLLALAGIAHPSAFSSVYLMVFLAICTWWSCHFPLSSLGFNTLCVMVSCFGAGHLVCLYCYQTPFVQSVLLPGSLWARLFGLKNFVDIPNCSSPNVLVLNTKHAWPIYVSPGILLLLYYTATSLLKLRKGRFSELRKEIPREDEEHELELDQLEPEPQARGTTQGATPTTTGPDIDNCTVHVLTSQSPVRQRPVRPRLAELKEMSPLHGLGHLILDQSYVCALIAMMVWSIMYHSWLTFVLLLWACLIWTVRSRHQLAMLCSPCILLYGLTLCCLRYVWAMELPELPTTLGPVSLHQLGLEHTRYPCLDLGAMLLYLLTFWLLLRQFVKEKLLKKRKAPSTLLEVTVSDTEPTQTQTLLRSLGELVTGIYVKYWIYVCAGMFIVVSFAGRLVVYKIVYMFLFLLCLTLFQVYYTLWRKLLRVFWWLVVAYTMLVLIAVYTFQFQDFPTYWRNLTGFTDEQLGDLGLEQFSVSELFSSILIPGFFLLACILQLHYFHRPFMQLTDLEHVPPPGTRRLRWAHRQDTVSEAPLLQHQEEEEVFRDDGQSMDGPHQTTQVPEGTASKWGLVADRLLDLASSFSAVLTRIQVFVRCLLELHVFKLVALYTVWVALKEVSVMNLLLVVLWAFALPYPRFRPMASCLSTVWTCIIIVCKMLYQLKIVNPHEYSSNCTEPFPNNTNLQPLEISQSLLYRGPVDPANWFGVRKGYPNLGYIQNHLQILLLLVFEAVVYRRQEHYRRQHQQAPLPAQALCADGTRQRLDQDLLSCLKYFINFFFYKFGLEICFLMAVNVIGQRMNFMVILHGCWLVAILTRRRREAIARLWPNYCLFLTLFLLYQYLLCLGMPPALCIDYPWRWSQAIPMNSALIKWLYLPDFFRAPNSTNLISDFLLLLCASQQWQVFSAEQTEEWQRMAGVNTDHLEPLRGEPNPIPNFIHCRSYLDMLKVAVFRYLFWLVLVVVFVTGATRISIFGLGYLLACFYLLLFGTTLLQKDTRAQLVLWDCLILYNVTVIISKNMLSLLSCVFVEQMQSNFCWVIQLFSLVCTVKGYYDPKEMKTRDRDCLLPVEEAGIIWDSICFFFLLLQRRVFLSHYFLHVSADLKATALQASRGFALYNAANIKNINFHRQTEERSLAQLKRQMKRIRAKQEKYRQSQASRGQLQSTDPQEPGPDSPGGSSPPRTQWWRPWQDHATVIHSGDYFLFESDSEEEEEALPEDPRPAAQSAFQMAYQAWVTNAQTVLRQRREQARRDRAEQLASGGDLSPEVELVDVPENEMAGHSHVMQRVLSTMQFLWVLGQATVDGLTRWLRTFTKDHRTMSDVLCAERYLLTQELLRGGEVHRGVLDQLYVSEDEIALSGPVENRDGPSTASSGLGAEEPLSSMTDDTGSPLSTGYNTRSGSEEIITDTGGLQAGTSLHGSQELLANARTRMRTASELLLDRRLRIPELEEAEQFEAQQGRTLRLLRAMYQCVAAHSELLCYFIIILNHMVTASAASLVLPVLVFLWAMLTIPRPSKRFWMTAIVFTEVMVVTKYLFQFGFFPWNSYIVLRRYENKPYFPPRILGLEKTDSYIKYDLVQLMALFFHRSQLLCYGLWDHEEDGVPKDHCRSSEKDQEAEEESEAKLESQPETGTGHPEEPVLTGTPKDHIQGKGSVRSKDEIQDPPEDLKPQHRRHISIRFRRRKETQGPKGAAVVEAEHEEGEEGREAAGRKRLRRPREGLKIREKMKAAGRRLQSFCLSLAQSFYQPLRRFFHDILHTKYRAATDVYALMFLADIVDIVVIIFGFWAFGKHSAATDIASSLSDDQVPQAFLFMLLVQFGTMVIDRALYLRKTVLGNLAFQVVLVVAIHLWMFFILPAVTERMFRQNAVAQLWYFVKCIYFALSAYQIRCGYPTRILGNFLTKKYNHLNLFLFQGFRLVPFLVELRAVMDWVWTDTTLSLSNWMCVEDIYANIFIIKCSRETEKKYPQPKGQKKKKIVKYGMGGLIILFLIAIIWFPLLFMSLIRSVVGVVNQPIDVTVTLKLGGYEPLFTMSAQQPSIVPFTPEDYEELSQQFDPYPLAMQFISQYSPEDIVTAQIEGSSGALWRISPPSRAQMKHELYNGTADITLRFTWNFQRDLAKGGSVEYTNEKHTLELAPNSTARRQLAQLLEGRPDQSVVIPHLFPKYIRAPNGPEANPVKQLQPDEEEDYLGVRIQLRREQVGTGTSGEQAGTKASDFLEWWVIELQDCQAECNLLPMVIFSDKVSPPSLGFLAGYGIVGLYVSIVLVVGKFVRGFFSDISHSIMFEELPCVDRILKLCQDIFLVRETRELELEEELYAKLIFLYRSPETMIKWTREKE

pEC50: ~5.40
Structure (SMILES): Clc1cccc(Cl)c1CSc1nnc(-c2cnccn2)s1 [Yoda1]

Source: PMC6856185, “Piezo1 channel activation mimics high glucose as a stimulator of insulin release” (Scientific Reports, 2019)
